pIC50: −log10 of the molar value. Where a SMILES comes first, the peptide text is derived from it. [ ]: non-standard residue; d: D form. Aib = CC(C)(N)C(=O)O
target: T1, Tissue factor pathway inhibitor (Homo sapiens, UniProt P10646); experiment: Binding affinity to TFPI (unknown origin) incubated for […] using tracer peptide JBT0131 by screening ELISA; conditions: not given
T1 sequence (P10646 whole entry): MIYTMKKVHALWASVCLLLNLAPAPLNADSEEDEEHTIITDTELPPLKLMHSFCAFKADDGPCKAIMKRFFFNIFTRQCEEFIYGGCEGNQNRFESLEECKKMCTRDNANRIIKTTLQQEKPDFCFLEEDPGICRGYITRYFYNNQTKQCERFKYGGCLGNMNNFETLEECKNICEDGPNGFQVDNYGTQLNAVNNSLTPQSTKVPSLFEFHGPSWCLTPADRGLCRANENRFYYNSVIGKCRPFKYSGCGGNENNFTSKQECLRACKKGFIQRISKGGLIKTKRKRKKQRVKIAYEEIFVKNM

Compound | pIC50
Ac-FQSKKNVFVFGYFERLRFKL-NH2 | < 5.30
Ac-FQSDKNVFVFGYFERLRAKL-NH2 | < 5.30
Ac-FQSKKLVFVFGYFERLRAKL-NH2 | < 5.30
Ac-FQSKKNVFVFGYFERDRAKL-NH2 | < 5.30
Ac-FQSKKNVFLFGYFERLRAKL-NH2 | < 5.30
Ac-FQSKKNVFVFGGFERLRAKL-NH2 | < 5.30
Ac-FDSKKNVFVFGYFERLRAKL-NH2 | < 5.78
CC(=O)N[C@@H](Cc1ccccc1)C(=O)N[C@@H](CCC(N)=O)C(=O)N[C@@H](CO)C(=O)N[C@@H](CCCCN)C(=O)NCC(=O)N[C@@H](CC(N)=O)C(=O)N[C@H](C(=O)NC(C)(C)C(=O)N[C@H](C(=O)N[C@@H](CC(=O)O)C(=O)NCC(=O)N[C@@H](Cc1ccc(O)cc1)C(=O)N[C@@H](Cc1ccccc1)C(=O)N[C@@H](CCC(=O)O)C(=O)N[C@@H](CCCNC(=N)N)C(=O)N[C@@H](CC(C)C)C(=O)NC(C)(C)C(=O)N[C@@H](C)C(=O)N[C@@H](CCCCN)C(=O)N[C@@H](CC(C)C)C(N)=O)C(C)C)C(C)C (Ac-FQSKGNV[Aib]VDGYFERL[Aib]AKL-NH2) | < 5.30
CC(=O)N[C@@H](Cc1ccccc1)C(=O)N[C@@H](CCC(N)=O)C(=O)N[C@@H](CO)C(=O)N[C@@H](CCCCN)C(=O)NCC(=O)N[C@@H](CC(N)=O)C(=O)N[C@H](C(=O)N[C@@H](Cc1ccccc1)C(=O)N[C@H](C(=O)N[C@@H](CC(=O)O)C(=O)NCC(=O)N[C@@H](Cc1ccc(O)cc1)C(=O)N[C@@H](Cc1ccccc1)C(=O)N[C@@H](CCC(=O)O)C(=O)N[C@@H](CCCNC(=N)N)C(=O)N[C@@H](CC(C)C)C(=O)NC(C)(C)C(=O)N[C@@H](C)C(=O)NC(C)(C)C(=O)N[C@@H](CC(C)C)C(N)=O)C(C)C)C(C)C (Ac-FQSKGNVFVDGYFERL[Aib]A[Aib]L-NH2) | < 5.30
Ac-FQSKKNVFVFLYFERLRAKL-NH2 | < 5.30
Ac-FQSFKNVFVFGYFERLRAKL-NH2 | < 5.30
Ac-FQSKKNVFVFGLFERLRAKL-NH2 | < 5.30
Ac-FQSKKFVFVFGYFERLRAKL-NH2 | < 5.30
Ac-FQLKKNVFVFGYFERLRAKL-NH2 | < 5.30
CC(=O)N[C@@H](Cc1ccccc1)C(=O)N[C@@H](CCC(N)=O)C(=O)N[C@@H](CO)C(=O)N[C@@H](CCCCN)C(=O)NCC(=O)N[C@@H](CC(N)=O)C(=O)N[C@H](C(=O)N[C@@H](Cc1ccccc1)C(=O)N[C@H](C(=O)N[C@@H](CC(=O)O)C(=O)NCC(=O)N[C@@H](Cc1ccc(O)cc1)C(=O)N[C@@H](Cc1ccccc1)C(=O)N[C@@H](CCC(=O)O)C(=O)NC(C)(C)C(=O)N[C@@H](CC(C)C)C(=O)NC(C)(C)C(=O)N[C@@H](C)C(=O)N[C@@H](CCCCN)C(=O)N[C@@H](CC(C)C)C(N)=O)C(C)C)C(C)C (Ac-FQSKGNVFVDGYFE[Aib]L[Aib]AKL-NH2) | < 5.30
CCCCCCCCCCCCCC(=O)NCCCC[C@H](NC(=O)[C@@H](NC(=O)[C@H](Cc1cnc[nH]1)NC(=O)[C@@H](NC(=O)[C@H](CO)NC(=O)[C@H]1CCCN1C(=O)[C@H](CCCCN)NC(=O)[C@H](CO)NC(=O)[C@H](CCC(N)=O)NC(=O)[C@H](Cc1ccccc1)NC(=O)CCCCC)C(C)C)C(C)(C)C)C(=O)N[C@H](C)C(=O)N[C@@H](Cc1ccc(O)cc1)C(=O)N[C@@H](Cc1ccccc1)C(=O)N[C@@H](CCC(=O)O)C(=O)N[C@@H](CCCNC(=N)N)C(=O)N[C@@H](CC(C)C)C(=O)NC(C)(C)C(=O)N[C@@H](C)C(=O)N[C@@H](CCCCN)C(=O)N[C@@H](CC(C)C)C(N)=O | < 6.30
CCCCCCCCCCCCCC(=O)NCCCC[C@H](NC(=O)[C@H]1CCCN1C(=O)[C@H](CCCCN)NC(=O)[C@H](CO)NC(=O)[C@H](CCC(N)=O)NC(=O)[C@H](Cc1ccccc1)NC(=O)CCCCC)C(=O)N[C@H](C(=O)N[C@@H](Cc1cnc[nH]1)C(=O)N[C@H](C(=O)N[C@@H](CC(=O)O)C(=O)N[C@H](C)C(=O)N[C@@H](Cc1ccc(O)cc1)C(=O)N[C@@H](Cc1ccccc1)C(=O)N[C@@H](CCC(=O)O)C(=O)N[C@@H](CCCNC(=N)N)C(=O)N[C@@H](CC(C)C)C(=O)NC(C)(C)C(=O)N[C@@H](C)C(=O)N[C@@H](CCCCN)C(=O)N[C@@H](CC(C)C)C(N)=O)C(C)(C)C)C(C)C | < 6.30
Ac-FQSKKNVFVFGDFERLRAKL-NH2 | < 5.30

Compound | pIC50
Ac-FQSKKNVFDFGYFERLRAKL-NH2 | < 5.30
Ac-FQSKKNVFVFGFFERLRAKL-NH2 | < 5.30
Ac-FQSKGNVFVDGYFERLRRKL-NH2 | > 7.30
Ac-FQSKKNYDVFGYFERLRAKL-NH2 | < 5.30
CCCCCCCCCCCCCC(=O)NCCCC[C@H](NC(=O)[C@H](CO)NC(=O)[C@H](CCC(N)=O)NC(=O)[C@H](Cc1ccccc1)NC(=O)CCCCC)C(=O)N1CCC[C@@H]1C(=O)N[C@@H](CO)C(=O)N[C@H](C(=O)N[C@@H](Cc1cnc[nH]1)C(=O)N[C@H](C(=O)N[C@@H](CC(=O)O)C(=O)N[C@H](C)C(=O)N[C@@H](Cc1ccc(O)cc1)C(=O)N[C@@H](Cc1ccccc1)C(=O)N[C@@H](CCC(=O)O)C(=O)N[C@@H](CCCNC(=N)N)C(=O)N[C@@H](CC(C)C)C(=O)NC(C)(C)C(=O)N[C@@H](C)C(=O)N[C@@H](CCCCN)C(=O)N[C@@H](CC(C)C)C(N)=O)C(C)(C)C)C(C)C | < 6.30
Ac-FQSKKNVFVFGYFERLRAFL-NH2 | < 5.30
Ac-FQSLKNVFVFGYFERLRAKL-NH2 | < 5.78
Ac-FQSKLNVFVFGYFERLRAKL-NH2 | < 5.78
Ac-FFSKKNVFVFGYFERLRAKL-NH2 | < 5.30
Ac-FQSKHHVFVDGYFERLCAKL-NH2 | > 7.30
Ac-FQSKKNVFVFFYFERLRAKL-NH2 | < 5.78
Ac-FQSKKNVFGFGYFERLRAKL-NH2 | < 5.30
Ac-FQSKKNVFVFGYFERFRAKL-NH2 | < 5.30
Ac-FQSKKNDFVFGYFERLRAKL-NH2 | < 5.30
Ac-FQSKKNVFVFGYFERLDAKL-NH2 | < 5.30
Ac-FQSKKNVFVFGYFEFLRAKL-NH2 | < 5.30
Ac-FQSKGNVFVDGYFERLRMKL-NH2 | > 7.30

test system: not listed separately; experiment: Stability in human plasma assessed as parent compound remaining after 24 hrs; assay type: ADME, cell-free; conditions: read-out: Stability

Compound | remaining at 24 h
CC(=O)N[C@@H](Cc1ccccc1)C(=O)N[C@@H](CCC(N)=O)C(=O)N[C@@H](CO)C(=O)N[C@@H](CCCCN)C(=O)N1CCC[C@@H]1C(=O)N[C@@H](CC(N)=O)C(=O)N[C@H](C(=O)N[C@@H](Cc1cnc[nH]1)C(=O)N[C@H](C(=O)N[C@@H](CC(=O)O)C(=O)N[C@@H]1CSSC[C@@H](C(=O)N[C@@H](CCCNC(=N)N)C(=O)N[C@@H](CC(C)C)C(=O)N[C@@H](C)C(=O)N[C@@H](C)C(=O)N[C@@H](CCCCN)C(=O)N[C@@H](CC(C)C)C(N)=O)NC(=O)[C@H](Cc2ccccc2)NC(=O)[C@H](Cc2ccc(O)cc2)NC1=O)C(C)(C)C)C(C)C | 49.3%
CCN1C(=O)CC(SC[C@H](NC(=O)[C@H](CC(C)C)NC(=O)[C@H](CCCCN)NC(=O)[C@H](C)NC(=O)C(C)(C)NC(=O)[C@H](CC(C)C)NC(=O)[C@H](CCCNC(=N)N)NC(=O)[C@H](CCC(=O)O)NC(=O)[C@H](Cc2ccccc2)NC(=O)[C@H](Cc2ccc(O)cc2)NC(=O)CNC(=O)[C@@H](NC(=O)[C@@H](NC(=O)[C@H](Cc2cnc[nH]2)NC(=O)[C@@H](NC(=O)[C@H](CC(N)=O)NC(=O)[C@H]2CCCN2C(=O)[C@H](CCCCN)NC(=O)[C@H](CO)NC(=O)[C@H](CCC(N)=O)NC(=O)[C@H](Cc2ccccc2)NC(C)=O)C(C)C)C(C)(C)C)[C@@H](C)O)C(N)=O)C1=O (stereo partly specified) | 52.6%
CCN1C(=O)CC(SC[C@H](NC(=O)[C@H](CC(C)C)NC(=O)[C@H](CCCCN)NC(=O)[C@H](C)NC(=O)C(C)(C)NC(=O)[C@H](CC(C)C)NC(=O)[C@H](CCCNC(=N)N)NC(=O)[C@H](CCC(=O)O)NC(=O)[C@H](Cc2ccccc2)NC(=O)[C@H](Cc2ccc(O)cc2)NC(=O)CNC(=O)[C@@H](NC(=O)[C@@H](NC(=O)[C@H](Cc2cnc[nH]2)NC(=O)[C@@H](NC(=O)[C@H](CC(N)=O)NC(=O)[C@H]2CCCN2C(=O)[C@H](CCCCN)NC(=O)[C@H](CO)NC(=O)[C@H](CCC(N)=O)NC(=O)[C@H](Cc2ccccc2)NC(C)=O)C(C)C)C(C)C)[C@@H](C)O)C(N)=O)C1=O (stereo partly specified) | 41.4%
CCCCCC(=O)N[C@@H](Cc1ccccc1)C(=O)N[C@@H](CCC(N)=O)C(=O)N[C@@H](CO)C(=O)N[C@@H](CCCCN)C(=O)N1CCC[C@@H]1C(=O)N[C@@H](CSCNC(C)=O)C(=O)N[C@H](C(=O)N[C@@H](Cc1cnc[nH]1)C(=O)N[C@H](C(=O)N[C@@H](CC(=O)O)C(=O)N[C@H](C)C(=O)N[C@@H](Cc1ccc(O)cc1)C(=O)N[C@@H](Cc1ccccc1)C(=O)N[C@@H](CCC(=O)O)C(=O)N[C@@H](CCCNC(=N)N)C(=O)N[C@@H](CC(C)C)C(=O)NC(C)(C)C(=O)N[C@@H](C)C(=O)N[C@@H](CCCCN)C(=O)N[C@@H](CC(C)C)C(=O)N[C@@H](CSC1CC(=O)N(CC)C1=O)C(=O)O)C(C)(C)C)C(C)C (stereo partly specified) | 107%
CC(C)C[C@H](NC(=O)[C@H](CCCCN)NC(=O)[C@H](C)NC(=O)C(C)(C)NC(=O)[C@H](CC(C)C)NC(=O)[C@H](CCCNC(=N)N)NC(=O)[C@H](CCC(=O)O)NC(=O)[C@H](Cc1ccccc1)NC(=O)[C@H](Cc1ccc(O)cc1)NC(=O)[C@@H](C)NC(=O)[C@H](CC(=O)O)NC(=O)[C@@H](NC(=O)[C@H](Cc1cnc[nH]1)NC(=O)[C@@H](NC(=O)[C@H](CC(N)=O)NC(=O)[C@H]1CCCN1C(=O)[C@H](CCCCN)NC(=O)[C@H](CO)NC(=O)[C@H](CCC(N)=O)NC(=O)[C@H](Cc1ccccc1)NS(=O)(=O)c1ccc2ccccc2c1)C(C)C)C(C)(C)C)C(N)=O | 105%
CC(=O)N[C@@H](Cc1ccccc1)C(=O)N[C@@H](CCC(N)=O)C(=O)N[C@@H](CO)C(=O)N[C@@H](CCCCN)C(=O)N1CCC[C@@H]1C(=O)N[C@@H](CC(N)=O)C(=O)N[C@H](C(=O)N[C@@H](Cc1cnc[nH]1)C(=O)N[C@H](C(=O)N[C@@H](CC(=O)O)C(=O)N[C@H](C)C(=O)N[C@@H](Cc1ccc(O)cc1)C(=O)N[C@@H](Cc1ccccc1)C(=O)N[C@@H](CCC(=O)O)C(=O)N[C@@H](CCCNC(=N)N)C(=O)N[C@@H](CC(C)C)C(=O)NC(C)(C)C(=O)N[C@H]1CSSCCNC(=O)[C@H](CC(C)C)NC(=O)[C@H](CCCCN)NC1=O)C(C)(C)C)C(C)C | 16%

Reference: ChEMBL document CHEMBL4420062, “Tfpi inhibitors and methods of use” (2013)
